What was measured:
20S-REGγ proteasome = biological target: T1, 20S-REGγ proteasome (Homo sapiens, UniProt P61289); assay: Proteasome Activity Assay with fluorogenic AMC substrates, in presence of REGγ; format: biochemical; details: 0.5nM human 20S + 12.5nM human REGγ
T1 construct: made in house
Experimental: Proteasome Activity Assay - The activity of the 20S and 20S-REGγ proteasomes was followed by fluorescence using the Bz-VGR-AMC (#BML-BW9375-0005, Enzo Life Sciences) substrate at 50µM for tryspin-like activity, the Suc-LLVY-AMC (#BML-P802-0005, Enzo Life Sciences) substrate at 100µM for the chemotrypsin-like activity and the Z-LLE-AMC (#BML-ZW9345-0005, Enzo Life Sciences) substrate at 100µM for the caspase-like activity. Substrates were incubated with 0,5nM of human 20S ((#E-360-050, Biotechne) and 12,5nM of human REGγ or 2nM of human REGαβ with or without compounds at different concentrations. Purified human REGγ and REGGαβ were generously provided by Julien Marcoux and Marie-Pierre Bousquet-Dubouch. Human REGγ and REGαβ were purified according to Le Feuvre et al., 2009 from plasmids kindly provided by Olivier Coux. The activity assay was performed in 96 well plates in a final volume of 80µL. Plates were read every minute for 90 minutes with a FLUOstar plate reader (BMG Labtech). To detect fluorescence, the excitation wavelength was set to 355nm and emission wavelength at 460nm.
The activity of the 20S and 20S-REGγ proteasomes was followed by fluorescence using the Bz-VGR-AMC (#BML-BW9375-0005, Enzo Life Sciences) substrate at 50µM for trypsin-like activity, the Suc-LLVY-AMC (#BML-P802-0005, Enzo Life Sciences) substrate at 100µM for the chemotrypsin-like activity and the Z-LLE-AMC (#BML-ZW9345-0005, Enzo Life Sciences) substrate at 100µM for the caspase-like activity. […]

REGγ = REGγ (Homo sapiens, UniProt P61289); assay: Thermal Shift Assay (nanoDSF) with REGγ; format: binding; details: REGγ 500nM, compound at 40X (20µM, 0,4% DMSO)
Experimental: (§1) Thermal shift assay was carried out with nano differential scanning fluorimetry (nanoDSF) using the Tycho NT.6 from Nanotemper and was performed at the I2BC platform (Gif-sur-Yvette). Samples were prepared in a final volume of 25µL in a 96-well plate prior to be loaded on the Tycho capillaries. Proteins were diluted in activity buffer (20mM Tris-HCl pH 7.4 and 20mM NaCl). After optimisation, REGγ concentration was set to 500nM and 20S concentration to 50nM. Compounds concentrations were determined as ratios to protein concentration and to stay below 0,5% of DMSO; accordingly, compounds with REGγ were tested at 40X (20µM, 0,4% DMSO) and at 100X (5µM, 0,1% DMSO) with 20S. A thermal ramp was applied from 20 to 95°C and fluorescence was followed at 350nm and 330 nm, measuring intrinsic fluorescence of the proteins from tryptophan and tyrosine residues. Binding was detected as a shift in the inflection temperature (Ti) compared to the DMSO control.
(§2) To assess the efficacy of molecule 58 in directly binding to REGγ, inventors conducted a thermal shift assay (TSA). TSA leverages the property of proteins to undergo unfolding at specific temperatures, and the interaction with a ligand can alter the thermal stability, leading to a shift in the unfolding temperature. In their study, inventors examined how the compound 58 interacted with REGγ and monitored the change in melting temperature (ΔTm).

20S proteasome = tested on: T2, 20S proteasome; assay: Thermal Shift Assay (nanoDSF) with 20S; format: binding, human; details: 20S 50nM, compound at 100X (5µM, 0,1% DMSO)
T2 construct: purified 20S proteasome from human erythrocytes; purchased Biotechne E-360-050; host or cells: human erythrocytes
Experimental: as §1, §2

A375 REGγ KO cells = assay: MTT assay; format: cell-based; details: Homo sapiens, A-375, 24-hour treatment, read-out: IC50 (cell viability)
Experimental: (§3) 2,5×10^4 of MCA cells or 5×10^4 of MCA c13 cells were plated in quadruplicates in clear 96-well plates and incubated overnight. The next day, cells were with various concentration of the tested compounds for 24h. After treatment, media was carefully removed before adding 50µL of new media and 10µL of tetrazolium salt solution (5mg/mL in PBS) and homogeneizing the well by pipetting up and down. The plate was then incubated for 2 hours at 37°C. After incubation, plate was centrifuged 5min at 1500rpm before adding 150µL of DMSO to each well to solubilize the formazan cristals. The plate was incubated on agitation for 10min and absorbance was read at 544nm using a EL808 (Biotek) plate reader.
(§4) To assess the efficacy of compound 58 against tumor cell lines, inventors initially aimed to determine its IC50 values in both mouse and human cell lines. They utilized an MTT assay to ascertain these values for mouse MCA fibrosarcoma and human A375 melanoma cell lines. Specifically, they treated 2.5 × 10^4 MCA WT or MCA REGγ KO cells and 5 × 10^4 human A375 WT or A375 REGγ KO cells with varying concentrations of compound 58 for a 24-hour duration.

[1] = tested on: A375 WT cells (A375 melanoma); assay: MTT assay; format: cell-based; details: Homo sapiens, A-375, 24-hour treatment, read-out: IC50 (cell viability)
Experimental: as §3, §4

MCA REGγ KO cells = assay: MTT assay; format: cell-based; details: Mus musculus, 24-hour treatment, read-out: IC50 (cell viability)
Experimental: as §3, §4

[2] = tested on: MCA WT cells (MCA fibrosarcoma); assay: MTT assay; format: cell-based; details: Mus musculus, 24-hour treatment, read-out: IC50 (cell viability)
Experimental: as §3, §4

T1 sequence (P61289 whole entry): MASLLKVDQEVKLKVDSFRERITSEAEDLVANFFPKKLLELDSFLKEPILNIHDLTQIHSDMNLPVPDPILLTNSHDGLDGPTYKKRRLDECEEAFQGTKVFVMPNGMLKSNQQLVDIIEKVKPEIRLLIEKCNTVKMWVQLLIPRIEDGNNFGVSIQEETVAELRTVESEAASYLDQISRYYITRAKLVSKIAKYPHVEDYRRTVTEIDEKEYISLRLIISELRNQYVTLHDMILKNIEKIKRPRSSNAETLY
REGγ, sequence (P61289 whole entry): as above

Question: With `Cc1ccc(N=Nc2ccc(C)cc2NC(=O)Nc2ccccc2F)cc1` [compound 58] as the compound, how does the “concentration at which inhibition of trypsin-like activity starts” value (20S-REGγ proteasome; Bz-VGR-AMC 50µM, stronger effect at 100 µM) read?
Answer: 50 µM

Question: What about the “concentration at which chymotrypsin-like activity is inhibited” value (20S-REGγ proteasome; Suc-LLVY-AMC 100µM, inhibited only at this concentration) of the same compound?
Answer: 100 µM

Question: What about the “concentration at which inhibition of caspase-like activity starts” value (20S-REGγ proteasome; Z-LLE-AMC 100µM, stronger effect at 100 µM) of the same compound?
Answer: 50 µM

Question: What about the “change in melting temperature (ΔTm)” value (REGγ) of the same compound?
Answer: substantial increase in ΔTm

Question: And the “change in melting temperature (ΔTm)” value (20S proteasome)?
Answer: no significant change in ΔTm

Question: What about the IC50 (A375 REGγ KO cells) of the same compound?
Answer: 486 µM

Question: What about the IC50 [1] of the same compound?
Answer: 150 µM

Question: And the IC50 (MCA REGγ KO cells)?
Answer: 99.6 µM

Question: And the IC50 [2]?
Answer: 39.1 µM
